Measurements from PMC9080520 (RSC Advances, 2018).

Assay: Antioxidant assay: DPPH radical-scavenging activity
Settings: read-out: Antioxidant activity IC50 (DPPH); DPPH method

| IC50 [µM] | Compound |
| --- | --- |
| 407 ± 22.1 | O=c1c(O[C@@H]2O[C@H](CO)[C@@H](O)[C@H](O)[C@H]2O)c(-c2ccc(O)cc2)oc2cc(O[C@@H]3O[C@H](CO)[C@@H](O)[C@H](O)[C@H]3O)cc(O)c12 [Compound 8, kaempferol-3,7-di-O-β-D-glucopyranoside] |
| 129 ± 9.2 | kaempferol-3-O-rutinoside [Compound 11] |
| 170 ± 5.2 | C[C@@H]1O[C@@H](O[C@H]2[C@H](Oc3c(-c4ccc(O)cc4)oc4cc(O)cc(O)c4c3=O)O[C@H](CO[C@@H]3O[C@H](CO)[C@@H](O)[C@H](O)[C@H]3O)[C@@H](O)[C@@H]2O)[C@H](O)[C@H](O)[C@H]1O [Compound 2, kaempferol-3-O-β-D-glucopyranosyl-(1 → 6)-[α-L-rhamnopyranosyl-(1 → 2)]-β-D-glucopyranoside] |
| 36.3 ± 1.1 | O=c1c(O)c(-c2ccc(O)cc2)oc2cc(O)cc(O)c12 [Compound 5, kaempferol] |

Continued, compound first:

| Compound | IC50 [µM] |
| --- | --- |
| O=c1c(O)c(-c2ccc(O)cc2)oc2cc(O[C@@H]3O[C@H](CO)[C@@H](O)[C@H](O)[C@H]3O)cc(O)c12 [Compound 7, kaempferol-7-O-β-D-glucopyranoside] | 77.6 ± 2.4 |
| O=c1c(O[C@@H]2O[C@H](CO)[C@@H](O)[C@H](O)[C@H]2O)c(-c2ccc(O)cc2)oc2cc(O)cc(O)c12 [Compound 6, astragalin] | 100 ± 3.2 |
| C[C@@H]1O[C@@H](OC[C@H]2O[C@@H](Oc3c(-c4ccc(O)cc4)oc4cc(O)cc(O)c4c3=O)[C@H](O[C@@H]3O[C@H](CO)[C@@H](O)[C@H](O)[C@H]3O)[C@@H](O)[C@@H]2O)[C@H](O)[C@H](O)[C@H]1O [Compound 4, kaempferol-3-O-β-D-glucopyranosyl-(1 → 2)-[α-L-rhamnopyranosyl-(1 → 6)]-β-D-glucopyranoside] | 257 ± 19.9 |
| O=C1O[C@H]([C@@H](O)CO)C(O)=C1O [V c, L-ascorbic acid, reference compound] | 33.9 ± 1.1 |
| C[C@@H]1O[C@@H](OC[C@H]2O[C@@H](O[C@H]3[C@H](Oc4c(-c5ccc(O)cc5)oc5cc(O)cc(O)c5c4=O)O[C@H](CO)[C@@H](O)[C@@H]3O)[C@H](O)[C@@H](O)[C@@H]2O)[C@H](O)[C@H](O)[C@H]1O [Compound 10, kaempferol-3-O-α-L-rhamnopyranosyl-(1 → 6)-β-D-glucopyranosyl-(1 → 2)-β-D-glucopyranoside] | 209 ± 7.3 |
